# In patent publication US4271155A, “Water soluble hydrazones of 3-formylrifamycin SV, antibacterial compositions thereof and method of use thereof” (Gruppo Lepetit S.p.A., priority 1979, dated 1981):
# Like-named read-outs stand apart in the source and are kept apart here.
# Legend:
# [1] = solubility in water / aqueous vehicles; type: physicochemical
# Excerpt: The new rifamycins of formula I are in fact completely soluble in water or in mixture of water with other pharmaceutically acceptable solvents mixable with water. Useful solvents which can be admixed with water are for instance the polyhydric aliphatic alcohols such as ethylene glycol, propylene glycol, glycerine and mixtures thereof. These solutions can be added with buffers to maintain the pH range at a physiological value. For instance, ten grams of the compound of formula I wherein R is methyl, X is [drawing 3] are completely soluble in 100 ml of water buffered at pH 7.38 (phosphate buffer). The corresponding compound wherein A and B are both the sodium cation is even more soluble; in fact 100 ml of water can dissolve about fifty grams of said compound.
# [2] = system: Staphylococcus aureus Tour; experiment: ED50 in mice infected with Staphylococcus aureus Tour; type: in vivo; settings: sc
# Excerpt: (§1) The values of the ED50 of the compounds of examples 2, 3 and 4 against the two microbial strains and the toxicity (LD50) of the compounds are reported in the following Table
# [3] = toxicity (LD50) in mice; settings: mouse, in vivo
# Excerpt: as §1
# [4] = system: Escherichia coli; experiment: ED50 in mice infected with Escherichia coli; type: in vivo; settings: sc, read-out: ED50, E. coli
# Excerpt: as §1
# [5] = ip, read-out: LD50 in mice, i.p.
# [6] = iv, read-out: LD50 in mice, i.v.
smiles,measurement,setting,value
COC1C=COC2(C)Oc3c(C)c(O)c4c(O)c(c(C=NN(C)CC(C)OP(=O)(O)O)c(O)c4c3C2=O)NC(=O)C(C)=CC=CC(C)C(O)C(C)C(O)C(C)C(OC(C)=O)C1C (centres unmarked) [listing 1 of 2 here],completely soluble in 100 ml of water,[1]; per 100 ml of water buffered at pH 7.38 (phosphate buffer),ten
COC1C=COC2(C)Oc3c(C)c(O)c4c(O)c(c(C=NN(C)CC(C)OP(=O)(O)O)c(O)c4c3C2=O)NC(=O)C(C)=CC=CC(C)C(O)C(C)C(O)C(C)C(OC(C)=O)C1C (centres unmarked) [listing 2 of 2 here],amount that 100 ml of water can dissolve,"[1]; per 100 ml of water, A and B both sodium cation",about fifty
"COC1C=COC2(C)Oc3c(C)c(O)c4c(O)c(c(C=NN(C)CC(C)OP(=O)(O)O)c(O)c4c3C2=O)NC(=O)C(C)=CC=CC(C)C(O)C(C)C(O)C(C)C(OC(C)=O)C1C (centres unmarked) [Example 2, 3-[[[2-(Phosphonoxy)propyl]methylhydrazino]methyl]rifamycin SV]",ED50,[2],0.812 mg/kg
same,LD50,[3]; [5],770 mg/kg
same,LD50,[3]; [6],665 mg/kg
same,ED50,[4],98.5 mg/kg
"CCC(CN(C)N=Cc1c2c(O)c3c(O)c(C)c4c(c3c1O)C(=O)C(C)(OC=CC(OC)C(C)C(OC(C)=O)C(C)C(O)C(C)C(O)C(C)C=CC=C(C)C(=O)N2)O4)OP(=O)(O)O (centres unmarked) [Example 3, 3-[[[2-(Phosphonoxy)butyl]methylhydrazono]methyl]rifamycin SV]",ED50,[2],0.812 mg/kg
same,LD50,[3]; [5],> 500 mg/kg
same,LD50,[3]; [6],525 mg/kg
same,ED50,[4],130 mg/kg
"COC1C=COC2(C)Oc3c(C)c(O)c4c(O)c(c(C=NN(C)CCOP(=O)(O)O)c(O)c4c3C2=O)NC(=O)C(C)=CC=CC(C)C(O)C(C)C(O)C(C)C(OC(C)=O)C1C (centres unmarked) [Example 4, 3-[[[2-(Phosphonoxy)ethyl]methylhydrazono]methyl]rifamycin SV]",ED50,[2],1.51 mg/kg
same,LD50,[3]; [5],592 mg/kg
same,LD50,[3]; [6],507 mg/kg
same,ED50,[4],106 mg/kg
